ChEMBL document CHEMBL3885861, “Open TG-GATES”

Species: Rattus norvegicus
Test: Open TG-GATES - Regimen: Single
Format: toxicity, organism-based, Sprague-Dawley
Design: regimen Single, gender Male, age 6 weeks
Settings: in vivo, po, route gavage; for KIDNEY_L / KIDNEY_R / KIDNEY_TOTAL: tissue Kidney; for LIVER: tissue Liver; for ALP / ALT / AST / BUN / CRE / DBIL / GLC / IP / K / PL / RALB / TBIL / TC / TG / TP / gamma-GTP: tissue Plasma
[1] = 100 mg/kg, 3 h, tissue Blood, dose level Middle
[2] = 100 mg/kg, 3 h, dose level Middle
[3] = 100 mg/kg, 6 h, tissue Blood, dose level Middle
[4] = 100 mg/kg, 6 h, dose level Middle
[5] = 100 mg/kg, 9 h, tissue Blood, dose level Middle
[6] = 100 mg/kg, 9 h, dose level Middle
[7] = 100 mg/kg, 24 h, tissue Blood, dose level Middle
[8] = 100 mg/kg, 24 h, dose level Middle
[9] = 1000 mg/kg, 3 h, tissue Blood, dose level High
[10] = 1000 mg/kg, 3 h, dose level High
[11] = 1000 mg/kg, 6 h, tissue Blood, dose level High
[12] = 1000 mg/kg, 6 h, dose level High
[13] = 1000 mg/kg, 9 h, tissue Blood, dose level High
[14] = 1000 mg/kg, 9 h, dose level High
[15] = 1000 mg/kg, 24 h, tissue Blood, dose level High
[16] = 1000 mg/kg, 24 h, dose level High

CC(C)OC(=O)C(C)(C)Oc1ccc(C(=O)c2ccc(Cl)cc2)cc1 [FENOFIBRATE] gave a Bas [1] of 0.2%, an Eos [1] of 1% and a Fbg [1] of 289.2 mg/dL. The Ht [1] was 41%, the MCHC [1] was 32.3% and the Mono [1] was 3%. For the same compound, the RBC [1] was 610 x10_4/ul, the Ret [1] was 9.8% and the KIDNEY_L [2] was 0.8 g. It also gave a KIDNEY_R [2] of 0.8 g, a KIDNEY_TOTAL [2] of 1.6 g and an LIVER [2] of 8.2 g. The ALP [2] was 1478.6 IU/L, the ALT [2] was 46.6 IU/L and the AST [2] was 79 IU/L. For the same compound, the BUN [2] was 9.8 mg/dL, the CRE [2] was 0.2 mg/dL and the DBIL [2] was 0.012 mg/dL. The GLC [2] was 181.2 mg/dL, the IP [2] was 10.1 mg/dL and the K [2] was 4.3 meq/L. For the same compound, the PL [2] was 145.8 mg/dL, the RALB [2] was 2.6 g/dL and the TBIL [2] was 0.052 mg/dL. The TC [2] was 79.6 mg/dL, the TG [2] was 46.4 mg/dL and the TP [2] was 5.4 g/dL. It also gave a gamma-GTP [2] of 1.4 IU/L, a Bas [3] of 0.2% and an Eos [3] of 0.4%. It also gave a Fbg [3] of 261.4 mg/dL, a Ht [3] of 39.8% and an MCHC [3] of 32.3%. The Mono [3] was 2.8%, the RBC [3] was 591.2 x10_4/ul and the Ret [3] was 10.3%. The KIDNEY_L [4] was 0.8 g, the KIDNEY_R [4] was 0.8 g and the KIDNEY_TOTAL [4] was 1.6 g. The LIVER [4] was 7.5 g, the ALT [4] was 51.2 IU/L and the AST [4] was 85.8 IU/L. The BUN [4] was 8.4 mg/dL, the CRE [4] was 0.2 mg/dL and the DBIL [4] was 0.01 mg/dL. For the same compound, the GLC [4] was 173 mg/dL, the IP [4] was 9.8 mg/dL and the K [4] was 4.2 meq/L. It also gave a PL [4] of 130.8 mg/dL, an RALB [4] of 2.5 g/dL and a TBIL [4] of 0.054 mg/dL. It also gave a TC [4] of 69.6 mg/dL, a TG [4] of 37.2 mg/dL and a TP [4] of 5.2 g/dL. It also gave a gamma-GTP [4] of 1 IU/L, a Bas [5] of 0% and an Eos [5] of 1%. The Fbg [5] was 292.2 mg/dL, the Ht [5] was 39.2% and the Lym [5] was 69.2%. For the same compound, the MCHC [5] was 32.7%, the Mono [5] was 2.6% and the RBC [5] was 604 x10_4/ul. The Ret [5] was 10.3%, the KIDNEY_L [6] was 0.8 g and the KIDNEY_R [6] was 0.8 g. For the same compound, the KIDNEY_TOTAL [6] was 1.6 g, the LIVER [6] was 7 g and the ALP [6] was 1457.4 IU/L. The ALT [6] was 45 IU/L, the AST [6] was 83.2 IU/L and the BUN [6] was 6.8 mg/dL. The CRE [6] was 0.2 mg/dL, the DBIL [6] was 0.008 mg/dL and the GLC [6] was 159.8 mg/dL. It also gave an IP [6] of 9.6 mg/dL, a K [6] of 3.9 meq/L and a PL [6] of 125 mg/dL. For the same compound, the RALB [6] was 2.4 g/dL, the TBIL [6] was 0.054 mg/dL and the TC [6] was 70.8 mg/dL. The TG [6] was 29.2 mg/dL, the TP [6] was 5.3 g/dL and the gamma-GTP [6] was 1 IU/L. The Bas [7] was 0.2%, the Eos [7] was 0.8% and the Fbg [7] was 259.6 mg/dL. It also gave a Ht [7] of 38.8%, an MCHC [7] of 32.8% and a Mono [7] of 3.2%. The RBC [7] was 582.4 x10_4/ul, the Ret [7] was 8.5% and the KIDNEY_L [8] was 0.8 g. For the same compound, the KIDNEY_R [8] was 0.8 g, the KIDNEY_TOTAL [8] was 1.7 g and the LIVER [8] was 9.8 g. The ALP [8] was 1873.8 IU/L, the ALT [8] was 46.4 IU/L and the AST [8] was 74.4 IU/L. For the same compound, the BUN [8] was 13 mg/dL, the CRE [8] was 0.2 mg/dL and the DBIL [8] was 0.012 mg/dL. The GLC [8] was 187.8 mg/dL, the IP [8] was 8.9 mg/dL and the K [8] was 4.4 meq/L. It also gave a PL [8] of 122.6 mg/dL, an RALB [8] of 2.5 g/dL and a TBIL [8] of 0.04 mg/dL. It also gave a TC [8] of 68.6 mg/dL, a TG [8] of 36.4 mg/dL and a TP [8] of 5.3 g/dL. For the same compound, the gamma-GTP [8] was 1 IU/L, the Bas [9] was 0.2% and the Eos [9] was 0.6%. For the same compound, the Fbg [9] was 271.2 mg/dL, the Ht [9] was 40.6% and the MCHC [9] was 32.5%. For the same compound, the Mono [9] was 3.4%, the RBC [9] was 616.6 x10_4/ul and the Ret [9] was 10.6%. For the same compound, the KIDNEY_L [10] was 0.8 g, the KIDNEY_R [10] was 0.8 g and the KIDNEY_TOTAL [10] was 1.6 g. For the same compound, the LIVER [10] was 7.4 g, the ALT [10] was 43.2 IU/L and the AST [10] was 76.6 IU/L. It also gave a BUN [10] of 8.2 mg/dL, a CRE [10] of 0.2 mg/dL and a DBIL [10] of 0.018 mg/dL. It also gave a GLC [10] of 173.6 mg/dL, an IP [10] of 9.3 mg/dL and a K [10] of 4.3 meq/L. The PL [10] was 123.2 mg/dL, the RALB [10] was 2.5 g/dL and the TBIL [10] was 0.062 mg/dL. For the same compound, the TC [10] was 64.8 mg/dL, the TG [10] was 28 mg/dL and the TP [10] was 5.3 g/dL. It also gave a gamma-GTP [10] of 1.6 IU/L, a Bas [11] of 0% and an Eos [11] of 0.6%. It also gave a Fbg [11] of 253.6 mg/dL, a Ht [11] of 39.6% and an MCHC [11] of 32.5%. It also gave a Mono [11] of 2.4%, an RBC [11] of 609.8 x10_4/ul and a Ret [11] of 10%. For the same compound, the KIDNEY_L [12] was 0.8 g, the KIDNEY_R [12] was 0.8 g and the KIDNEY_TOTAL [12] was 1.6 g. For the same compound, the LIVER [12] was 7.4 g, the ALP [12] was 1256 IU/L and the ALT [12] was 43.4 IU/L. For the same compound, the AST [12] was 75.4 IU/L, the BUN [12] was 7 mg/dL and the CRE [12] was 0.2 mg/dL. For the same compound, the DBIL [12] was 0.02 mg/dL, the GLC [12] was 170.4 mg/dL and the IP [12] was 9 mg/dL. The K [12] was 4.2 meq/L, the PL [12] was 116.8 mg/dL and the RALB [12] was 2.5 g/dL. For the same compound, the TBIL [12] was 0.058 mg/dL, the TC [12] was 60 mg/dL and the TG [12] was 28.6 mg/dL. For the same compound, the TP [12] was 5.2 g/dL, the gamma-GTP [12] was 1.2 IU/L and the Bas [13] was 0%. For the same compound, the Eos [13] was 0.6%, the Fbg [13] was 283.6 mg/dL and the Ht [13] was 39.8%. For the same compound, the MCHC [13] was 32.3%, the Mono [13] was 1.8% and the RBC [13] was 609.2 x10_4/ul. It also gave a Ret [13] of 8.8%, a KIDNEY_L [14] of 0.8 g and a KIDNEY_R [14] of 0.8 g. It also gave a KIDNEY_TOTAL [14] of 1.6 g, an LIVER [14] of 6.9 g and an ALP [14] of 1470.4 IU/L. The ALT [14] was 48.4 IU/L, the AST [14] was 90.4 IU/L and the BUN [14] was 8 mg/dL. The CRE [14] was 0.2 mg/dL, the DBIL [14] was 0.014 mg/dL and the GLC [14] was 152.2 mg/dL. For the same compound, the IP [14] was 8.5 mg/dL, the K [14] was 3.8 meq/L and the PL [14] was 119 mg/dL. It also gave an RALB [14] of 2.5 g/dL, a TBIL [14] of 0.048 mg/dL and a TC [14] of 62.4 mg/dL. It also gave a TG [14] of 32.2 mg/dL, a TP [14] of 5.3 g/dL and a gamma-GTP [14] of 1 IU/L. It also gave a Bas [15] of 0%, an Eos [15] of 1% and a Fbg [15] of 259 mg/dL. For the same compound, the Ht [15] was 39.4%, the MCHC [15] was 32.5% and the Mono [15] was 3.6%. For the same compound, the RBC [15] was 603.8 x10_4/ul, the Ret [15] was 9.1% and the KIDNEY_L [16] was 0.8 g. It also gave a KIDNEY_R [16] of 0.8 g, a KIDNEY_TOTAL [16] of 1.7 g and an LIVER [16] of 9.6 g. It also gave an ALT [16] of 53 IU/L, an AST [16] of 84.4 IU/L and a BUN [16] of 13.6 mg/dL. It also gave a CRE [16] of 0.2 mg/dL, a DBIL [16] of 0.014 mg/dL and a GLC [16] of 172.2 mg/dL. For the same compound, the IP [16] was 8.7 mg/dL, the K [16] was 4.3 meq/L and the PL [16] was 112.4 mg/dL. For the same compound, the RALB [16] was 2.5 g/dL, the TBIL [16] was 0.048 mg/dL and the TC [16] was 57.2 mg/dL. For the same compound, the TG [16] was 31.6 mg/dL, the TP [16] was 5.3 g/dL and the gamma-GTP [16] was 1 IU/L.
